Experimental data as given in patent US20040152596A1, “Coated seed and process for coating a seed” (priority 2001, published 2004).

What was measured:
[1] = system: Barley
Description: (§1) A number of tests were carried out with the purpose of finding for various plant species the optimal fertilizer and the optimal fertilizer amount in terms of emergence. […] The fixing agent was used in an amount of 2% of the weight of the seeds. […] These percentages are % by weight, calculated from the seed weight.

[2] = system: Wheat
Description: as §1

[3] = system: Sunflower
Description: as §1

[4] = system: Rape
Description: as §1

[5] = system: Pea
Description: A number of tests were carried out with the purpose of finding for various plant species the optimal fertilizer and the optimal fertilizer amount in terms of emergence. […] The fixing agent was used in an amount of 2% of the weight of the seeds. […] (DCP) or urea phosphate (UP). […] These percentages are % by weight, calculated from the seed weight.
The results of the emergence tests are shown in Table 2, wherein the numeric values indicate the emergence percentage.

[6] = system: Tomato; details: for Emergence percentage: fertilizer 10% of seed weight, fixing agent 2% of seed weight
Description: as §1

[7] = fertilizer 4% of seed weight, fixing agent 2% of seed weight

Structure (SMILES) | Suitability of phosphorus fertilizer as seed coating (emergence table) [1] | Suitability of phosphorus fertilizer as seed coating (emergence table) [2] | Suitability of phosphorus fertilizer as seed coating (emergence table) [3] | Suitability of phosphorus fertilizer as seed coating (emergence table) [4] | Suitability of phosphorus fertilizer as seed coating (emergence table) [5] | Combined effect in terms of plant emergence and phosphorus uptake [6] | Emergence percentage [6] | Combined effect in terms of plant emergence and phosphorus uptake [1] | Emergence percentage ([1]; fertilizer 6% of seed weight, fixing agent 2% of seed weight) | Combined effect in terms of plant emergence and phosphorus uptake [2] | Emergence percentage [2, 7] | Combined effect in terms of plant emergence and phosphorus uptake [3] | Emergence percentage ([3]; fertilizer 10% of seed weight, fixing agent 2% of seed weight) | Emergence percentage ([4]; fertilizer 8% of seed weight, fixing agent 2% of seed weight) | Emergence percentage [5, 7]
NC(N)=O.O=P(O)(O)O [UP, urea phosphate] | Not suitable | Not suitable | Not suitable | Not suitable | Not suitable | best combined effect | 82% |  |  |  |  |  |  |  | 
O=P([O-])(O)O.[K+] [MKP, monopotassium phosphate] |  |  |  |  |  | best combined effect | 80% | best combined effect | 93% | best combined effect | 85% | best combined effect | 87% | 85 (8%) | 95 (4%)
